Measured values taken from ChEMBL document CHEMBL1201862, “PubChem BioAssay data set” (2004).
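Dose response: 5 concentrations. Exposure: 48 h. Format: 96-well plates. Endpoint: linear interpolation; highest concentration if not reached. The concentration for 50% growth inhibition is given as GI50.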 Activity calls are given as the source filed them. Rule as the data show it: active = GI50 up to about 1.1 µM and inactive = higher.

Tests used:
Experiment in all cases: DTP human tumour cell line panel, 48 h
[1] = system: MDA-N
[2] = system: M14
[3] = system: MDA-MB-231
[4] = system: UO-31
[5] = system: SR
[6] = system: T47D
[7] = system: SF-268
[8] = system: RXF 393
[9] = system: NCI-H522
[10] = system: SNB-75
[11] = system: OVCAR-8
[12] = system: EKVX
[13] = system: HOP-92
[14] = system: HL-60
[15] = system: NCI-H226
[16] = system: MOLT-4
[17] = system: MDA-MB-435
[18] = system: HT-29
[19] = system: UACC-257
[20] = system: HCT-15
[21] = system: SK-MEL-2
[22] = system: UACC-62
[23] = system: HCT-116
[24] = system: OVCAR-5
[25] = system: SNB-19
[26] = system: NCI-H460
[27] = system: A498
[28] = system: LOX IMVI
[29] = system: SK-OV-3
[30] = system: CAKI-1
[31] = system: SW-620
[32] = system: SN12C
[33] = system: HCC 2998
[34] = system: DU-145
[35] = system: PC-3
[36] = system: ACHN
[37] = system: SF-295
[38] = system: RPMI-8226
[39] = system: HOP-62
[40] = system: OVCAR-4
[41] = system: Malme-3M
[42] = system: Hs-578T
[43] = system: K562
[44] = system: U-251
[45] = system: NCI-H23
[46] = system: SK-MEL-5
[47] = system: CCRF-CEM
[48] = system: A549
[49] = system: SK-MEL-28
[50] = system: COLO 205
[51] = system: BT-549
[52] = system: 786-0
[53] = system: KM12
[54] = system: TK-10
[55] = system: MCF7
[56] = system: NCI/ADR-RES
[57] = system: OVCAR-3
[58] = system: IGROV-1

SMILES: NCCP(=O)(O)O
- GI50 [1]: > 100 µM (inactive)
- GI50 [2]: > 100 µM (inactive)
- GI50 [3]: > 100 µM (inactive)
- GI50 [4]: > 100 µM (inactive)
- GI50 [5]: > 100 µM (inactive)
- GI50 [6]: > 100 µM (inactive)
- GI50 [7]: > 100 µM (inactive)
- GI50 [8]: > 100 µM (inactive)
- GI50 [9]: > 100 µM (inactive)
- GI50 [10]: > 100 µM (inactive)
- GI50 [11]: > 100 µM (inactive)
- GI50 [12]: > 100 µM (inactive)
- GI50 [13]: > 100 µM (inactive)
- GI50 [14]: > 100 µM (inactive)
- GI50 [15]: > 100 µM (inactive)
- GI50 [16]: > 100 µM (inactive)
- GI50 [17]: > 100 µM (inactive)
- GI50 [18]: > 100 µM (inactive)
- GI50 [19]: > 100 µM (inactive)
- GI50 [20]: > 100 µM
- GI50 [21]: > 100 µM (inactive)
- GI50 [22]: > 100 µM (inactive)
- GI50 [23]: > 100 µM (inactive)
- GI50 [24]: > 100 µM (inactive)
- GI50 [25]: > 100 µM (inactive)
- GI50 [26]: > 100 µM (inactive)
- GI50 [27]: > 100 µM (inactive)
- GI50 [28]: > 100 µM (inactive)
- GI50 [29]: > 100 µM (inactive)
- GI50 [30]: > 100 µM (inactive)
- GI50 [31]: > 100 µM (inactive)
- GI50 [32]: > 100 µM (inactive)
- GI50 [33]: > 100 µM (inactive)
- GI50 [34]: > 100 µM (inactive)
- GI50 [35]: > 100 µM (inactive)
- GI50 [36]: > 100 µM (inactive)
- GI50 [37]: > 100 µM (inactive)
- GI50 [38]: > 100 µM (inactive)
- GI50 [39]: > 100 µM (inactive)
- GI50 [40]: > 100 µM (inactive)
- GI50 [41]: > 100 µM (inactive)
- GI50 [42]: > 100 µM (inactive)
- GI50 [43]: > 100 µM (inactive)
- GI50 [44]: > 100 µM (inactive)
- GI50 [45]: > 100 µM (inactive)
- GI50 [46]: > 100 µM (inactive)
- GI50 [47]: > 100 µM (inactive)
- GI50 [48]: > 100 µM (inactive)
- GI50 [49]: > 100 µM (inactive)
- GI50 [50]: > 100 µM (inactive)
- GI50 [51]: > 100 µM (inactive)
- GI50 [52]: > 100 µM (inactive)
- GI50 [53]: > 100 µM (inactive)
- GI50 [54]: > 100 µM (inactive)
- GI50 [55]: > 100 µM (inactive)
- GI50 [56]: > 100 µM (inactive)
- GI50 [57]: > 100 µM (inactive)
- GI50 [58]: > 100 µM (inactive)
